Reference: patent US11666559B2, “Spiro-lactam compounds, process and uses thereof” (UNIVERSIDADE DE COIMBRA, priority 2017, dated 2023)
pIC50: −log10 of the molar value. Read-outs that look alike come from different tables or passages of the source.

Assays:
HIV = test: Anti-HIV activity evaluation (HIV type not specified); format: cell-based
Description: (§1) In an embodiment, TZM-bl cells (AIDS Research and Reference Reagent Program, National Institutes of Health, USA) were cultured in complete growth medium that consists of Dulbecco's minimal essential medium (DMEM) supplemented with 10% fetal bovine serum (FBS), 100 U/ml of penicillin-streptomycin (Gibco/Invitrogen, USA), 1 mM of sodium pyruvate (Gibco/Invitrogen, USA), 2 mM of L-glutamine (Gibco/Invitrogen, USA) and 1 mM of non-essential amino acids (Gibco/Invitrogen, USA).
(§2) In an embodiment, the primary isolates 93AOHDC249, 93AOHDC250, 01PTHDECJN and 03PTHCC9, used in this study were previously isolated, titrated and characterized for co-receptor usage. HIV reference strain SG3.1 was obtained by transfection of HEK293T cells with pSG3.1 (HIV-1) plasmid using Fugene 6 reagent (Roche, Switzerland) according to manufacturer's instructions.
(§3) In an embodiment, the 50% tissue culture infectious dose (TCID50) of the virus was determined in a single-round viral infectivity assay using a luciferase reporter gene assay in TZM-bl cells and calculated using the statistical method of Reed and Muench^27.
In an embodiment, the antiviral activity of the compounds was determined in a single-round assay with TZM-bl cells as previously described ^26. […] After 48 h of infection, luciferase expression was quantified with the One-Glow luciferase assay substrate reagent (Promega, USA) according to manufacturer's instructions. […] After an incubation of 3 minutes at room temperature to allow complete cell lysis luminescence was measured in Tecan Infinite M200. Background luminescence was measured by using control wells that contained only target cells and GM. […]
In an embodiment, dose-response curves were estimated from the percentage of inhibition of infection (y-axis) against logo of concentration of each compound (x-axis) using the sigmoidal dose-response equation (variable slope) in GraphPad Prism version 5.00 for Windows (GraphPad Software, San Diego Calif. USA, www.graphpad.com). IC50 and IC90 values were determined from this curve. […]

TZM-bl cells = test: Cellular viability assay (alamarBlue) in TZM-bl cells
Source text: In an embodiment, the cellular cytotoxicity of 17 spiro-β-lactams was investigated in TZM-bl cells using the AlamarBlue assay as recommended by the manufacturer (Invitrogen, USA). TZM-bl, previously designated JC53-bl (clone 13) is a HeLa cell line. The parental cell line (JC.53) stably expresses large amounts of CD4, CCR5 and CXCR4. The TZM-bl cell line was generated from JC.53 cells by introducing separate integrated copies of the luciferase and […] genes under control of the HIV-1 promoter. The TZM-bl cell line is highly sensitive to infection with diverse isolates of HIV.
In an embodiment, the cellular viability assay was carried out as follows: the potential in vitro cytotoxicity of all BSS compounds was evaluated in TZM-bl cells. TZM-bl cells (10000 cells/well in 96-well plates) were incubated in absence or presence of serial-two-fold dilutions of the compounds in growth medium (GM), with starting concentration of 100 μg/ml and a final concentration of 0.781 μg/ml. After 48 hours, cell viability was examined with alamarBlue reagent (Invitrogen, USA) according to manufacturer's instructions. Briefly, 10 μl of alamarBlue reagent was added to each well. After 4 hours at 37° C., the fluorescence was measured in Tecan Infinite M200 (excitation wavelength 550 nm and emission wavelength 600 nm).
In an embodiment, at least two independent experiments have been performed for each cytotoxicity analysis.
In an embodiment, for each assay there were medium controls (only growth medium), cell controls (cells without test compound) and cytotoxicity controls (a compound that kill cells—SDS).

P. berghei liver stages = test: In vitro activity against the liver stage of Plasmodium infection (luciferase assay in Huh7 cells); format: cell-based, Plasmodium berghei; settings: P. berghei liver stages in Huh7 cells
Description: FIG. 6: Compound activity against P. berghei liver stages. Anti-Plasmodial activity (infection axis, bars) and toxicity to hepatoma cells (cell confluency axis, circles) are shown. Infection loads of Huh7 cells, a human hepatoma cell line, were determined by bioluminescence measurements of cell lysates 48 h after infection with luciferase-expressing P. berghei parasites. Luciferase assay in 96 well-plate; 10 000 Huh7 cells/well+10 000 PbA-LuciGFPcon spz/well.
In an embodiment, the in vitro activity against the liver stage of Plasmodium infection was also carried out: inhibition of liver stage Plasmodium infection by test compounds was determined by measuring the luminescence intensity in Huh-7 cells infected with a firefly luciferase-expressing P. berghei line, as previously described. Briefly, Huh-7 cells, a human hepatoma cell line, were cultured in 1640 RPMI medium supplemented with 10% v/v fetal bovine serum, 1% v/v nonessential amino acids, 1% v/v penicillin/streptomycin, 1% v/v glutamine, and 10 mM 4-(2-hydroxyethyl)-1-piperazineethanesulfonic acid (HEPES), pH 7, and maintained at 37° C. with 5% CO2. For infection assays, Huh-7 cells (1.0×10^4 per well) were seeded in 96-well plates the day before drug treatment and infection. The medium was replaced by medium containing the appropriate concentration of each compound approximately 1 h prior to infection with sporozoites freshly obtained through disruption of salivary glands of infected female Anopheles stephensi mosquitoes. Sporozoite addition was followed by centrifugation at 1700×g for 5 min. Parasite infection load was measured 48 h after infection by a bioluminescence assay (Biotium). The effect of the compounds on the viability of Huh-7 cells was assessed by the AlamarBlue assay (Invitrogen, U.K.) using the manufacturer's protocol.

[1] = system: Enterococcus faecalis ATCC 29212; test: Anti-bacterial activity, agar diffusion method; format: cell-based; settings: at the concentration of 1 mg/ml
Description: (§4) In an embodiment, anti-bacterial activity of the compounds now disclosed was determined according to CLSI guidelines. The following bacteria were used: reference strains E. coli ATCC 10536, Staphylococcus aureus ATCC 6538, Bacillus subtilis ATCC 6633 and Enterococcus faecalis ATCC 29212; clinical strains of E. coli and Pseudomonas aeruginosa isolated in our laboratory; and strains of Lactobacillus rhamnosus and Lactobacillus plantarum also isolated in our laboratory. The Minimum Inhibitory Concentration (MIC) was determined by the agar diffusion method, in plates of Mueller-Hinton agar or Rogosa agar (for Lactobacilli). Briefly, 10^8 cfu/ml bacterial suspensions were prepared in sterile water and spread in the culture media. Sterile disks containing different concentrations of P3 were placed on the inoculated surface. Plates were incubated at 37° C. for 24 h or 48 h. Lactobacilli were incubated at microaerophilic conditions. A negative control made of sterile water was used. Disks of amoxicillin and imipenem were used as positive controls.

[2] = system: Escherichia coli (Clinical strain); test: Anti-bacterial activity, agar diffusion method; format: cell-based; settings: at the concentration of 1 mg/ml
Description: as §4

[3] = system: Escherichia coli ATCC 10536; test: Anti-bacterial activity, agar diffusion method; format: cell-based; settings: at the concentration of 1 mg/ml
Description: as §4

Lactobacillus plantarum = test: Anti-bacterial activity, agar diffusion method; format: cell-based; settings: at the concentration of 1 mg/ml
Description: as §4

Lactobacillus rhamnosus = test: Anti-bacterial activity, agar diffusion method; format: cell-based; settings: at the concentration of 1 mg/ml
Description: as §4

[4] = system: Pseudomonas aeruginosa (Clinical strain); test: Anti-bacterial activity, agar diffusion method; format: cell-based; settings: at the concentration of 1 mg/ml
Description: as §4

[5] = system: Staphylococcus aureus ATCC 6538; test: Anti-bacterial activity, agar diffusion method; format: cell-based; settings: at the concentration of 1 mg/ml
Description: as §4

[6] = system: Bacillus subtillis ATCC 6633; test: Anti-bacterial activity, agar diffusion method; format: cell-based, Bacillus subtilis; settings: at the concentration of 1 mg/ml
Description: as §4

HIV-1 = settings: for pIC50 / IC90: TZM-bl cells
Description: as §1, §2, §3
(§5) In an embodiment, the antiviral activity of the compounds was determined in a single-round assay with TZM-bl cells as previously described ^26. Cells were infected with 200 TCID50 of virus in the presence of serial fold dilutions of the BSS compounds in GM, supplemented with DEAE-dextran (19.7 μg/ml). After 48 h of infection, luciferase expression was quantified with the One-Glow luciferase assay substrate reagent (Promega, USA) according to manufacturer's instructions. Briefly, a volume of reagent equal to that of the culture medium in each well was added. For 96-well plates, typically 100 μl of reagent is added to the cells grown in 100 μl of medium. After an incubation of 3 minutes at room temperature to allow complete cell lysis luminescence was measured in Tecan Infinite M200. Background luminescence was measured by using control wells that contained only target cells and GM. Maraviroc (CCR5 antagonist), T1249 (fusion inhibitor) and AMD3100 (CXCR4 antagonist) were used as positive controls of the antiviral activity. At least two independent experiments were performed for each analysis and each assay was set up in triplicate wells.
(§6) In an embodiment, dose-response curves were estimated from the percentage of inhibition of infection (y-axis) against logo of concentration of each compound (x-axis) using the sigmoidal dose-response equation (variable slope) in GraphPad Prism version 5.00 for Windows (GraphPad Software, San Diego Calif. USA, www.graphpad.com). IC50 and IC90 values were determined from this curve. IC50 and IC90 values correspond to the concentration of compound that inhibits viral replication in 50% and 90%, respectively.

HIV-2 = system: HIV-2
Description: as §1, §2, §3, §5, §6

[7] = 93AOHDC249, CCR5 tropic HIV-1 primary isolate
[8] = SG3.1, CXCR4 tropic HIV-1 adapted isolate
[9] = 03PTHCC19, CCR5 tropic HIV-2 isolate, TZM-bl cells, wa = without antiviral activity

COC(=O)C1=C[C@@]2(N=N1)C(=O)N1[C@@H](C(=O)OC(c3ccccc3)c3ccccc3)C(C)(C)S[C@@H]12 [BSS-452]
anti-HIV activity (in words) (HIV): non-active
CC50 (TZM-bl cells): 105 µM
anti-Plasmodium activity (in words) (P. berghei liver stages): did not display anti-Plasmodium activity

COC(=O)C1=C(C(=O)OC)[C@@]2(N=N1)C(=O)N1[C@@H](C(=O)O)C(C)(C)S[C@@H]12 [BSS-587, (2,3′R,5R)-4′,5′-bis(methoxycarbonyl)-3,3-dimethyl-7-oxo-4-thia-1-azaspiro[bicyclo[3.2.0]heptane-6,3′-pyrazole]-2-carboxylic acid]
CC50 (TZM-bl cells; Table 2, TZM-bl cells, 48 hours, alamarBlue): 136 µM
inhibitory activity [1]: no inhibitory activity
inhibitory activity [2]: no inhibitory activity
inhibitory activity [3]: no inhibitory activity
inhibitory activity (Lactobacillus plantarum): no inhibitory activity
inhibitory activity (Lactobacillus rhamnosus): no inhibitory activity
inhibitory activity [4]: no inhibitory activity
inhibitory activity [5]: no inhibitory activity
inhibitory activity [6]: no inhibitory activity

CC(=O)C1=NNC2(C1)C(=O)N1C(C(=O)O)C(C)(C)SC12 (centres unmarked) [BSS-591, Spiro[penicillanic-6,5′-(3-acetyl-2-pyrazoline)] acid]
CC50 (TZM-bl cells): 164 µM
inhibitory activity [1]: no inhibitory activity
inhibitory activity [2]: no inhibitory activity
inhibitory activity [3]: no inhibitory activity
inhibitory activity (Lactobacillus plantarum): no inhibitory activity
inhibitory activity (Lactobacillus rhamnosus): no inhibitory activity
inhibitory activity [4]: no inhibitory activity
inhibitory activity [5]: no inhibitory activity
inhibitory activity [6]: no inhibitory activity

CCOC(=O)C1=NNC2(C1)C(=O)N1C(C(=O)O)C(C)(C)SC12 (centres unmarked) [BSS-597, Spiro[penicillanic-6,5′-(3-ethoxycarbonyl-2-pyrazoline)] acid]
CC50 (TZM-bl cells): 152 µM
inhibitory activity [1]: no inhibitory activity
inhibitory activity [2]: no inhibitory activity
inhibitory activity [3]: no inhibitory activity
inhibitory activity (Lactobacillus plantarum): no inhibitory activity
inhibitory activity (Lactobacillus rhamnosus): no inhibitory activity
inhibitory activity [4]: no inhibitory activity
inhibitory activity [5]: no inhibitory activity
inhibitory activity [6]: no inhibitory activity

COC(=O)C1C(C(=O)OCc2ccccc2)=CCC12C(=O)N1[C@@H](C(=O)OC(c3ccccc3)c3ccccc3)C(C)(C)S[C@@H]12 (some centres unmarked) [BSS-722A]
anti-HIV activity against HIV-1 (in words) (HIV-1): potent activity
MPI (maximum percentage of inhibition) (HIV-1; [7]): 99%
TI (in vitro therapeutic index, CC50/IC50) (HIV-1; [7]): 161.80
pIC50 (HIV-1; [7]): 6.48
IC90 (HIV-1; [7]): 0.701 µM
MPI (maximum percentage of inhibition) (HIV-1; [8]): 97%
TI (in vitro therapeutic index, CC50/IC50) (HIV-1; [8]): 82.64
pIC50 (HIV-1; [8]): 6.19
IC90 (HIV-1; [8]): 1.09 µM
anti-HIV activity against HIV-2 (in words) (HIV-2): potent activity
TI (in vitro therapeutic index, CC50/IC50) (HIV-2; 03PTHCC19, CCR5 tropic HIV-2 isolate): 105.29
pIC50 (HIV-2; [9]): 6.29
IC90 (HIV-2; [9]): 1.18 µM
MPI (maximum percentage of inhibition) (HIV-2; 03PTHCC19, CCR5 tropic HIV-2 isolate, wa = without antiviral activity): 90%
CC50 (TZM-bl cells): 53.7 µM
CC50 (TZM-bl cells; read-out: CC50 (cytotoxic concentration 50%), Table 1, TZM-bl cells, 48 hours, alamarBlue): 53.7 µM
anti-Plasmodium activity (in words) (P. berghei liver stages): presented activity

CC(=O)C1C(C(=O)OCc2ccccc2)=CCC12C(=O)N1[C@@H](C(=O)OC(c3ccccc3)c3ccccc3)C(C)(C)S[C@@H]12 (some centres unmarked) [BSS-793B]
CC50 (TZM-bl cells): 47.7 µM

CC(=O)C1C(C)C=C(C(=O)OCc2ccccc2)C12C(=O)N1[C@@H](C(=O)OC(c3ccccc3)c3ccccc3)C(C)(C)S[C@@H]12 (some centres unmarked) [BSS-794B]
CC50 (TZM-bl cells): 49 µM

CC1(C)S[C@H]2N(C(=O)C23C(C(=O)c2ccccc2)N=NC3c2ccccc2)[C@H]1C(=O)OC(c1ccccc1)c1ccccc1 (some centres unmarked) [BSS-971S]
CC50 (TZM-bl cells): 82 µM

CC(C)(C)OC(=O)C1=NNC(c2ccccc2)C12C(=O)N1[C@@H](C(=O)OC(c3ccccc3)c3ccccc3)C(C)(C)S[C@@H]12 (some centres unmarked) [BSS-973C]
CC50 (TZM-bl cells): 79.8 µM

CC(=O)C1=NNC(c2ccccc2)C12C(=O)N1[C@@H](C(=O)OC(c3ccccc3)c3ccccc3)C(C)(C)S[C@@H]12 (some centres unmarked) [BSS-974C]
CC50 (TZM-bl cells): 80.8 µM

CC(=O)C1N=NC(c2ccccc2)C12C(=O)N1[C@@H](C(=O)OC(c3ccccc3)c3ccccc3)C(C)(C)S[C@@H]12 (some centres unmarked) [BSS-974S]
CC50 (TZM-bl cells): 91.9 µM

COC(=O)C1=C(C(=O)OC)[C@@]2(N=N1)C(=O)N1[C@@H](C(=O)OC(c3ccccc3)c3ccccc3)C(C)(C)S[C@@H]12 [BSS-1026]
anti-HIV activity (in words) (HIV): non-active
CC50 (TZM-bl cells): 82 µM
anti-Plasmodium activity (in words) (P. berghei liver stages): did not display anti-Plasmodium activity
